{"source": "paper PMC6989684", "about": "(Scientific Reports, 2020)", "biological_target": "T1, M. musculus importin-α (MmImpα), variant α2, truncated 70–529 (Mus musculus, UniProt P52293)", "T1 construct": "histidine tag; made in house; host or cells: Escherichia coli Rosetta (TM) pLYS", "experiment": "Isothermal titration calorimetry (ITC), NLS peptide titrated into MmImpα", "type": "binding", "conditions": "20 °C; for interaction with Impα receptor in words: mutated PAC-3 NLS (basic cluster to Ala), pH 8.0, protein/peptide 1:10 and 1:20; for Stoichiometry (binding): mutated PAC-3 NLS, 20 mM Tris-HCl pH 8.0, 100 mM NaCl, protein/peptide 1:10 and 1:20", "text": "The gene encoding the protein Impα from M. musculus was cloned into the pET30a expression vector. Recombinant MmImpα was cloned with a histidine tag and as a truncated protein (70–529) to avoid autoinhibition. The clones were provided by Dr. Bostjan Kobe from the University of Queensland (Australia). The plasmid was expressed in Escherichia coli host strain Rosetta (TM) pLYS (Novagen), and the recombinant protein was purified by affinity chromatography according to Barros et al., 2012[59]. The protein was eluted with a 0.0–0.15 M imidazole linear gradient, concentrated using an Amicon dispositive, and the buffer was changed to 20 mM Tris-HCl, pH 8.0 and 100 mM NaCl for storage. The purified protein was stored at cryogenic temperature.\nThe samples were submitted to ITC experiments, performed with a MicroCal iTC200 microcalorimeter (GE Healthcare), where the peptide sample was titrated into the protein sample. […] Control experiments were performed by titration of the peptide sample into the buffer, and the data obtained were subtracted from the peptide:protein titrations. Data were processed using Origin 7.0 software (Microcal Software, Northampton, MA) to obtain the thermodynamic constants of the interactions.", "data": [{"sequence": "FDAAAAQFDDLNDFFGSVKRRQIN [PAC3Δminor, mutated PAC-3 NLS peptide, N-terminal basic cluster mutated]", "values": [{"measurement": "interaction with Impα receptor in words", "result": "no measured interaction with Impα receptor"}, {"measurement": "Stoichiometry (binding)", "result": "No binding"}]}, {"sequence": "FDARKRQFDDLNDFFGSVAAAQIN [PAC3Δmajor, mutated PAC-3 NLS peptide, C-terminal basic cluster mutated]", "values": [{"measurement": "interaction with Impα receptor in words", "result": "no measured interaction with Impα receptor"}, {"measurement": "Stoichiometry (binding)", "result": "No binding"}]}]}
